According to patent US8629173B2, “Solid forms comprising (+)-2-[1-(3-ethoxy-4-methoxyphenyl)-2-methylsulfonylethyl]-4-acetylaminoisoindoline-1,3-dione, compositions thereof, and uses thereof” (Celgene Corporation, priority 2002, dated 2014):

Key:
[1] = test system: SEB-induced IFN-γ production; assay: cells; type: cell-based; details: Homo sapiens, PBMC, 18 h, read-out: IFN-γ IC50
[2] = target: T1, PDE6 from bovine retinal rod outer segments (Bos taurus, UniProt P11541+P23439); assay: PDE6 enzyme assay; type: biochemical
T1 construct: PDE6 from bovine retinal rod outer segments; from tissue; host or cells: bovine retinal rod outer segments
T1 sequence (P11541 2-856 limits assumed): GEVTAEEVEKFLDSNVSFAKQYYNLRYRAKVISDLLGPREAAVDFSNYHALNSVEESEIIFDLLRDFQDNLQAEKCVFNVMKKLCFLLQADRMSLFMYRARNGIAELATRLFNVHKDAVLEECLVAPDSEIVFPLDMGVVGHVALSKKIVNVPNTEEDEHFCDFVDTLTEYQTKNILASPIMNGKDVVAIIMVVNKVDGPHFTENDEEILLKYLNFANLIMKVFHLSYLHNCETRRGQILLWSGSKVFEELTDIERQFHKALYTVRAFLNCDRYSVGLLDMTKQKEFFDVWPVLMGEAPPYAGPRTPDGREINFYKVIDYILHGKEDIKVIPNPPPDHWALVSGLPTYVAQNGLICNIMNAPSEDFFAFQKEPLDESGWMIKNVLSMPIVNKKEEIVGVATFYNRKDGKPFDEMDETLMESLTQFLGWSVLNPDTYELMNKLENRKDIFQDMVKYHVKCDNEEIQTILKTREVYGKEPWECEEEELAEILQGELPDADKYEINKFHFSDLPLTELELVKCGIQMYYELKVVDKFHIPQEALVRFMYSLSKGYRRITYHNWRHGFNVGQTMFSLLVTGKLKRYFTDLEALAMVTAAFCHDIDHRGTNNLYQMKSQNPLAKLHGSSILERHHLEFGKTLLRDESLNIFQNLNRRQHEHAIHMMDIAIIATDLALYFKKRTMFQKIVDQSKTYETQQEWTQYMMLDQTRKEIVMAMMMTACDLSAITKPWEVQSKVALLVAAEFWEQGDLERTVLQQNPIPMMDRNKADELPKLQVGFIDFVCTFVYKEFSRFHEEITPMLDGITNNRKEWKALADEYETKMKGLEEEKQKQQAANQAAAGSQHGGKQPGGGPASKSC
T1 sequence (P23439 2-850 limits assumed): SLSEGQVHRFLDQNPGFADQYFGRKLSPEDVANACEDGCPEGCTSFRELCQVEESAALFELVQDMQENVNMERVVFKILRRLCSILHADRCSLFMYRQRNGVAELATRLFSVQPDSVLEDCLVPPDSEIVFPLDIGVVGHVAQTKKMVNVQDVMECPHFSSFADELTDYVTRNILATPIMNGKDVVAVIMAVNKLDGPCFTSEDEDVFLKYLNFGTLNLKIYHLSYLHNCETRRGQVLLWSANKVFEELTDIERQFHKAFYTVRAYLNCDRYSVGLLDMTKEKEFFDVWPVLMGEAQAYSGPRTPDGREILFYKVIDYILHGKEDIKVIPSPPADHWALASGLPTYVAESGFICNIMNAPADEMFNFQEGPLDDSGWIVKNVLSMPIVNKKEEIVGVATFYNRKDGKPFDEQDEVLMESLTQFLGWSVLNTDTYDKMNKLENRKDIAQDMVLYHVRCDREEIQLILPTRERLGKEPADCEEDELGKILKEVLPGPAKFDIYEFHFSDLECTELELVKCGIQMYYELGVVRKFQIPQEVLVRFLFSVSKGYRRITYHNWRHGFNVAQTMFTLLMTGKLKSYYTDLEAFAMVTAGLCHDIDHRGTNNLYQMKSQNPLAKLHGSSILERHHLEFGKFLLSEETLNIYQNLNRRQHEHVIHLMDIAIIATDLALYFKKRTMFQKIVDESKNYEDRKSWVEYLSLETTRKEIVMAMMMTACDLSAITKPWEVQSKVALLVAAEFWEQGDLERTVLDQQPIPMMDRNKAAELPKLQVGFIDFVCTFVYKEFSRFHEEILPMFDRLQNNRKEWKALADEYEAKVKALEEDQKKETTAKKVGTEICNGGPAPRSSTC

bovine PDE1 = assay: PDE1 enzyme assay; type: biochemical
[3] = test system: IL-1β-induced TNF-α production from human PBMC; assay: IL-1β-induced TNF-α production from human PBMC; type: cell-based; details: 18 h, read-out: IL-β-induced TNF-α IC50
Description: During the course of inflammatory diseases, TNF-α production is often stimulated by the cytokine IL-1β, rather than by bacterially derived LPS. Compounds were tested for the ability to inhibit IL-1β-induced TNF-α production from human PBMC as described above for LPS-induced TNF-α production, except that the PBMC were isolated from source leukocyte units (Sera-Tec Biologicals, North Brunswick, N.J., USA) by centrifugation on Ficoll-Paque Plus (Amersham Pharmacia, Piscataway, N.J., USA), plated in 96-well tissue culture plates at 3×10^5 cells/well in RPMI-1640 medium (BioWhittaker, Walkersville, Md., USA) containing 10% heat-inactivated fetal bovine serum (Hyclone), 2 mM L-glutamine, 100 U/ml penicillin, and […] (complete medium), pretreated with compounds at 10, 2, 0.4, 0.08, 0.016, 0.0032, 0.00064, and 0 μM in duplicate at a final DMSO concentration of 0.1% at 37° C. in a humidified incubator at 5% CO2 for one hour, then stimulated with 50 ng/ml recombinant human IL-1β (Endogen) for 18 hours.

LPS-induced serum TNF-α = assay: Mouse LPS-induced serum TNF-α inhibition; type: in vivo; details: po
Description: Compounds were tested in this animal model according to previously described methods (Corral et al., 1996, Mol. Med., 2:506-515). Mouse LPS-induced serum TNF-α inhibition (ED50, mg/kg, p.o.)=0.05 for Compound A.

human PDE2 = human PDE2 (Homo sapiens, UniProt O00408); assay: PDE2 enzyme assay; type: biochemical
Sequence of human PDE2 (O00408 whole entry): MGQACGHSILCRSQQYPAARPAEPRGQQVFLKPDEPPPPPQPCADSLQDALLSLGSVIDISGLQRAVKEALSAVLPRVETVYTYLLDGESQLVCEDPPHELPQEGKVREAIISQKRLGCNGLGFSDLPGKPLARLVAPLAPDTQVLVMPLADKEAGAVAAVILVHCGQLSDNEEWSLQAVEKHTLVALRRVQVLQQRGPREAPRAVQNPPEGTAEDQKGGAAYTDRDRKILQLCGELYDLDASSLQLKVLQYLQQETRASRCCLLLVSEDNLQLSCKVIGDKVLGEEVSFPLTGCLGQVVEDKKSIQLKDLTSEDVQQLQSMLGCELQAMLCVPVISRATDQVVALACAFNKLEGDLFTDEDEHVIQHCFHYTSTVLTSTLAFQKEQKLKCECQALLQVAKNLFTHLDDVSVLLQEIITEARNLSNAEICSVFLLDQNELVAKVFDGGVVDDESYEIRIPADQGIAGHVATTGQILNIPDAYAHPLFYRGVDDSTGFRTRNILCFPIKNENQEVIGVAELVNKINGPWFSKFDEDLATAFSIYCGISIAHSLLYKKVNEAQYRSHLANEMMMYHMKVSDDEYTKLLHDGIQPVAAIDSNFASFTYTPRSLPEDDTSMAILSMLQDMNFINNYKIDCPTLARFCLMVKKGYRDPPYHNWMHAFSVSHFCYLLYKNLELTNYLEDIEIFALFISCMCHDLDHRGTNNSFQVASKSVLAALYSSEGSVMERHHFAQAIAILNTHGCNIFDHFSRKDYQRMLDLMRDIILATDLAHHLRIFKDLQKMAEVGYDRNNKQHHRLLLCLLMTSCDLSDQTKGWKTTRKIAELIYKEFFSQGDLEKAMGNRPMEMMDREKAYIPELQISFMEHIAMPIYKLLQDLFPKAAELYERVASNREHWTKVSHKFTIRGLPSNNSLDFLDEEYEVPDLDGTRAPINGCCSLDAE

SMILES: CCOc1cc(C(CS(C)(=O)=O)N2C(=O)c3cccc(NC(C)=O)c3C2=O)ccc1OC (single isomer, unassigned; (+)) [Compound A, (+)-2-[1-(3-ethoxy-4-methoxyphenyl)-2-methylsulfonylethyl]-4-acetylaminoisoindoline-1,3-dione]
- IC50 [1]: 46 nM
- PDE Specificity Ratio PDE4/PDE6 ([2]; from Table 1 data): >40000 fold
- inhibition at 10 µM ([2]; read-out: PDE6 (% inhib at 10 μM)): -6%
- PDE1 (% inhib at 10 μM) (bovine PDE1; 10 μM): 23%
- PDE Specificity Ratio PDE4/PDE1 (bovine PDE1; from Table 1 data): >500 fold
- IC50 [3]: 83 nM
- ED50 (LPS-induced serum TNF-α): 0.05 mg/kg
- PDE Specificity Ratio PDE4/PDE2 (human PDE2; from Table 1 data): >10000 fold
- inhibition at 10 µM (human PDE2; read-out: PDE2 (% inhib at 10 μM)): 6%
